Counter-ions that a name gives are not always drawn.

T1 sequence (P08709 213-466 limits assumed): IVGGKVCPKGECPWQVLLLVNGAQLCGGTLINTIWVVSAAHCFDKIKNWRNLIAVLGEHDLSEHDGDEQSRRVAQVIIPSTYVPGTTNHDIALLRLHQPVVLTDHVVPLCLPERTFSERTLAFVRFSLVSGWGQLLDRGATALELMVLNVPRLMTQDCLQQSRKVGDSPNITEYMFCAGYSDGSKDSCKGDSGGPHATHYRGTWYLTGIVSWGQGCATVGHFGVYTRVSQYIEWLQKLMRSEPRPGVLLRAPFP
T1 sequence (P08709 61-212 limits assumed): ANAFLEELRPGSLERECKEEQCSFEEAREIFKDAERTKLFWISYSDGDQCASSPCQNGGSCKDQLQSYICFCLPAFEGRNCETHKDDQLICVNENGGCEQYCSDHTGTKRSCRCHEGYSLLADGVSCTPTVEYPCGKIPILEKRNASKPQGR
T1 sequence (P13726 33-295 partner): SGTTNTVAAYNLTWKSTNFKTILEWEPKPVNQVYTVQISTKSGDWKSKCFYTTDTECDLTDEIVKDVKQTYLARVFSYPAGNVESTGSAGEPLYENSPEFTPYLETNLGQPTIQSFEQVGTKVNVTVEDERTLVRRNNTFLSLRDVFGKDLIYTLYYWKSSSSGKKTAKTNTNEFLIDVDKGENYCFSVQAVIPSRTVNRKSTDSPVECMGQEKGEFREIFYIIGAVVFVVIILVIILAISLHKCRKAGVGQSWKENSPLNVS

This experiment has as its target T1, FVIIa (Homo sapiens, UniProt P08709).
T1 construct: with about 1% of the total amount in the proteolytically active form factor VIIa
The experiment in a line: FVIIa Ki (25° C.): FVIIa peptide substrate assay. Type of experiment: biochemical. The following applies: S2288 peptide substrate, full-length human TF. How it is done: The effectiveness of compounds of the present invention as inhibitors of the coagulation Factors, VIIa, IXa, Xa, XIa, XIIa, plasma kallikrein or thrombin, tissue kallikrein and activated protein C, can be determined using a relevant purified serine protease, respectively, and an appropriate synthetic substrate. The rate of hydrolysis of the chromogenic or fluorogenic substrate by the relevant serine protease was measured both in the absence and presence of compounds of the present invention. […] A decrease in the rate of absorbance or fluorescence change in the presence of inhibitor is indicative of enzyme inhibition. Such methods are known to one skilled in the art. The results of this assay are expressed as the inhibitory constant, Ki.
a. FVIIa Ki (25° C.): FVIIa Peptide Substrate Assay
S2288 (range of concentrations) and FVIIa inhibitor were incubated for 15 minutes (min) at 25° C. Reactions were initiated by addition of a solution of full-length human TF (6 nM), FVIIa (0.75 nM), and PCPS (25 μM). FVIIa hydrolyses S2288, which was monitored for up to 60 min at 405 nm. Steady-state reaction velocity data (vs) was globally fit to Equation 1 for competitive inhibition. vs=Vmax[S]/([S]+Km(1+[I]/Ki)) (Eq. 1) where Vmax is maximum velocity, [S] is substrate concentration, Km is the Michaelis-Menten constant, [I] is the inhibitor concentration, and Ki is the inhibitor dissociation constant (GraFit, version 5, Erithacus Software Ltd, West Sussex, UK).
“4-((R)-16-Difluoromethoxy-17-fluoro-3,12-dioxo-2,13-diaza-tricyclo[13.3.1.1^6,10]icosa-1(19),6,8,10(20),15,17-hexaen-11-ylamino)-benzamidine trifluoroacetic acid salt [Example 37]” registered a Ki of 11 nM.

`COc1ccc2cc1[C@H](C)CN(C)C(=O)Nc1ccc(S(=O)(=O)C3CC3)c(c1)CN(C)C(=O)C2Nc1ccc2c(N)nccc2c1` (mixture of isomers) [Example 12, (S)-5-(1-Amino-isoquinolin-6-ylamino)-19-cyclopropanesulfonyl-9-methoxy-3,11,13-trimethyl-3,13,15-triaza-tricyclo[14.3.1.1^6,10]henicosa-1(20),6(21),7,9,16,18-hexaene-4,14-dione trifluoroacetic acid salt] gave a Ki of 47 nM.

Consider `CN1Cc2cc(ccc2S(=O)(=O)C2CC2)NC(=O)OCc2cccc(c2)[C@@H](Nc2ccc3c(N)nccc3c2)C1=O` (single isomer, unassigned) [Example 3], for which affinity was put at a Ki of 560 nM.

As for `CN1Cc2cc(ccc2S(=O)(=O)C2CC2)NC(=O)OCC(C)(C)c2cccc(c2)[C@@H](Nc2ccc3c(N)nccc3c2)C1=O` (single isomer, unassigned) [Example 4], the Ki was found to be 1480 nM.

Molecule `COc1ccc2cc1CCOC(=O)Nc1ccc(S(=O)(=O)C3CC3)c(c1)CN(C)C(=O)[C@@H]2Nc1ccc2c(N)nccc2c1` (single isomer, unassigned) [Example 6] had a Ki of 44 nM.

Turning to `C[C@@H]1COC(=O)Nc2ccc(S(=O)(=O)C3CC3)c(c2)CN(C)C(=O)[C@H](Nc2ccc3c(N)nccc3c2)c2cccc1c2` (single isomer, unassigned) [Example 7], the inhibition constant (Ki) was 115 nM.

Regarding `CN1Cc2cc(ccc2S(=O)(=O)C2CC2)NC(=O)CCc2cccc(c2)[C@@H](Nc2ccc3c(N)nccc3c2)C1=O` (single isomer, unassigned) [Example 8], affinity was put at a Ki of 5 nM.

Molecule `COc1ccc2cc1CCC(=O)Nc1ccc(S(=O)(=O)C3CC3)c(c1)CN(C)C(=O)[C@@H]2Nc1ccc2c(N)ncc(F)c2c1` (single isomer, unassigned) [Example 11] had a Ki of 5 nM.

Molecule `CN1Cc2cc(ccc2S(=O)(=O)C2CC2)NC(=O)CCc2cc(ccc2F)[C@@H](Nc2ccc3c(N)ncc(F)c3c2)C1=O` (single isomer, unassigned) [Example 14] yielded a Ki of 5 nM.

For `COc1cc2cc(c1)[C@@H](Nc1ccc3c(N)ncc(F)c3c1)C(=O)N(C)Cc1cc(ccc1S(=O)(=O)C1CC1)NC(=O)CC2` (single isomer, unassigned) [Example 15], the Ki is 6 nM.

For the molecule `CN1Cc2cc(ccc2S(=O)(=O)C2CC2)NC(=O)CCc2cccc(c2)[C@@H](Nc2ccc3c(N)ncc(F)c3c2)C1=O` (single isomer, unassigned) [Example 17], affinity was put at a Ki of 7 nM.

Regarding `CN1Cc2cc(ccc2S(=O)(=O)C2CC2)NC(=O)CCc2cc(ccc2OCc2ccccc2)[C@@H](Nc2ccc3c(N)ncc(F)c3c2)C1=O` (single isomer, unassigned) [Example 18], the affinity corresponds to a Ki of 6 nM.

Take `CN1CCc2cccc(c2)[C@@H](Nc2ccc3c(N)ncc(F)c3c2)C(=O)N(C)Cc2cc(ccc2S(=O)(=O)C2CC2)NC1=O` (single isomer, unassigned) [Example 28]: affinity was put at a Ki of 14 nM.

As to `CN1Cc2cc(ccc2S(=O)(=O)C2CC2)NC(=O)N(Cc2ccccc2)CCc2cccc(c2)[C@@H](Nc2ccc3c(N)ncc(F)c3c2)C1=O` (single isomer, unassigned) [Example 29], the inhibitory constant (Ki) came to 80 nM.

`COc1c(F)cc2cc1CCC(=O)Nc1ccc(S(=O)(=O)C3CC3)c(c1)CN(C)C(=O)[C@@H]2Nc1ccc2c(N)ncc(F)c2c1` (single isomer, unassigned) [Example 30] returned a Ki of 10 nM.

On to `COc1ccc2cc1[C@@H](C)CN(C)C(=O)Nc1ccc(S(=O)(=O)C3CC3)c(c1)CN(C)C(=O)[C@@H]2Nc1ccc2c(N)ncc(F)c2c1` (single isomer, unassigned) [Example 31], for which the Ki stood at 5 nM.

The term Ki denotes the equilibrium dissociation constant of an inhibitor or competing ligand from its target. Read a low Ki as higher affinity.

Source of the values: patent publication US9657006B2, “Macrocyclic factor VIIa inhibitors” (BRISTOL-MYERS SQUIBB COMPANY, priority 2013, dated 2017).
